The source of these data is US10052306B2 (LUC THERAPEUTICS, INC., priority 2013, dated 2018).

The target in this assay is NR1/NR2B (Homo sapiens (Human), UniProt Q05586+Q13224). Put plainly: Cell assay: FDSS Ca2+ influx inhibition in HEK293 cells expressing NR1/NR2B.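 Further: Fluo-8 Ca2+ signal read on Hamamatsu FDSS 6000 after glutamate, glycine and Ca2+ challenge following 10 min compound preincubation, end/baseline fluorescence ratio compared with MK801 control.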 The conditions noted are these: Ca2+ influx.
Where [1] appears, read: Binned Activity, HEK293 cells expressing NR1/NR2B, binned NR2B NAM IC50.
Setting [2] is: NR2B NAM IC50, HEK293 cells expressing NR1/NR2B.

Some results are limits rather than exact numbers.

Sequence of NR1/NR2B (Q13224 27-1484, other chains not shown): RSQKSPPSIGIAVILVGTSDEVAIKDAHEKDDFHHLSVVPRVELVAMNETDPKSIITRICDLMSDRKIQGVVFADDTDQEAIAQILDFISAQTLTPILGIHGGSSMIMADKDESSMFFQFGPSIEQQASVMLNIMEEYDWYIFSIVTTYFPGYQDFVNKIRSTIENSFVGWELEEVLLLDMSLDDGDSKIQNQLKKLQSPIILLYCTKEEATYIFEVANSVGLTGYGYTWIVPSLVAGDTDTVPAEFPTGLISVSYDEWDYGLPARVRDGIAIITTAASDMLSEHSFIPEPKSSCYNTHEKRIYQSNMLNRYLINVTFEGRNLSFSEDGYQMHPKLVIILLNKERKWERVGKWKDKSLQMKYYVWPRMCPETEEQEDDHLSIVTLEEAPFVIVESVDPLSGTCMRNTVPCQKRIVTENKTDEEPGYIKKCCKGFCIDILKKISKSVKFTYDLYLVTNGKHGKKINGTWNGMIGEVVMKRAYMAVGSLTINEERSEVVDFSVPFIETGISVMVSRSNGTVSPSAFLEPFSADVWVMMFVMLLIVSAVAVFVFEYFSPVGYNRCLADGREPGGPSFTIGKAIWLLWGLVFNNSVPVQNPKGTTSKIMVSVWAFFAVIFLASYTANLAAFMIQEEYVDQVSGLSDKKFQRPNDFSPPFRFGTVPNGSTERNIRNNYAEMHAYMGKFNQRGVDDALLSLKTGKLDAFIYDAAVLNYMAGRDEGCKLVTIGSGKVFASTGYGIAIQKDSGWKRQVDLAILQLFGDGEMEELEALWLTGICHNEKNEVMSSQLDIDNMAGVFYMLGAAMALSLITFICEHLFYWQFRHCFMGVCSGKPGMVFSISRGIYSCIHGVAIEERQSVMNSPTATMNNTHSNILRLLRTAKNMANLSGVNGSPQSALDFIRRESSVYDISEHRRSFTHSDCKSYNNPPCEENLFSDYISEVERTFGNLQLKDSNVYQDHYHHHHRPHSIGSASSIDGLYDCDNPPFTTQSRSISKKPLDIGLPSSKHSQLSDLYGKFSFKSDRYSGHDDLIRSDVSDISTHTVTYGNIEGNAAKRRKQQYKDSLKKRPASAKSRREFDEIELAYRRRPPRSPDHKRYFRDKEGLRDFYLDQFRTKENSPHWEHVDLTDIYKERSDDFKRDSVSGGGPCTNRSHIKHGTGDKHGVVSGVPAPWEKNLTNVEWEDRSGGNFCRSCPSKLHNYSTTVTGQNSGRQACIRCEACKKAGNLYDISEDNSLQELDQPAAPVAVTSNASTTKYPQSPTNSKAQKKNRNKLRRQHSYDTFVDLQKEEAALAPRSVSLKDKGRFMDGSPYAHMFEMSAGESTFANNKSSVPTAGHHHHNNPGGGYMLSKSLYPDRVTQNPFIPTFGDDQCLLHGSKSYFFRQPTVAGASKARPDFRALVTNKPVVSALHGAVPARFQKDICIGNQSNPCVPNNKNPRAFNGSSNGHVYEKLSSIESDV

By IC50 is commonly meant the concentration at which inhibition is half-maximal. With `CC(C(O)c1ccc(O)cc1)N1C[C@@H]2C[C@@](O)(c3ccccc3)C[C@@H]2C1` (mixture of isomers) [Example 91, rac-2-(1-hydroxy-1-(4-hydroxyphenyl)propan-2-yl)-5-phenyloctahydrocyclo-penta[c]pyrrol-5-ol], the 50% inhibitory concentration (IC50) is, setting by setting: under setting [1], more than 10 µM; under setting [2], not below 10 µM.

In turn, `COc1cccc(C(O)CN2C[C@H]3C[C@@H](c4ccccc4)C[C@H]3C2)c1` (mixture of isomers) [Example 117, rac-1-(3-methoxyphenyl)-2-{5-phenyl-octahydrocyclopenta[c]pyrrol-2-yl}ethan-1-ol] came in with an IC50 under setting [1] of more than 10 µM and an IC50 under setting [2] not below 10 µM.

In the case of `OC(CN1C[C@H]2C[C@@H](c3ccccc3)C[C@H]2C1)c1cccc(C(F)(F)F)c1` (mixture of isomers) [Example 116, rac-2-(5-phenylhexahydrocyclo-penta[c]pyrrol-2(1H)-yl)-1-(3-(trifluoromethyl)phenyl) ethanol], the IC50 runs as follows: under setting [1], more than 10 µM; under setting [2], not below 10 µM.

In the case of `COc1ccc(NC(=O)N2C[C@@H]3C[C@@](O)(c4ccccc4C)C[C@@H]3C2)cc1` [Example 8], the IC50 is, setting by setting: under setting [1], more than 10 µM; under setting [2], not below 10 µM.

Under setting [1], `Cc1ccc(NC(=O)N2C[C@@H]3C[C@@](O)(c4ccccc4C)C[C@@H]3C2)cc1` [Example 9] displayed an IC50 of more than 10 µM.

Turning to `Oc1ccc(C(O)CN2C[C@H]3C[C@@H](Cc4ccccc4)C[C@H]3C2)cc1` (mixture of isomers) [Example 304, rac-4-{2-[(3aR,5S,6aS)-5-benzyl-octahydrocyclopenta[c]pyrrol-2-yl]-1-hydroxyethyl}phenol], the IC50 runs as follows: under setting [1], less than 0.1 µM; under setting [2], 0.0168 µM.

With `Oc1ccc(C(O)CN2C[C@@H]3C[C@@](O)(CC4CCCCC4)C[C@@H]3C2)cc1` (mixture of isomers) [Example 209, rac-(3aR,5R,6aS)-5-(cyclohexylmethyl)-2-[2-hydroxy-2-(4-hydroxyphenyl)ethyl]-octahydrocyclopenta[c] pyrrol-5-ol], inhibition under setting [2] was half-maximal at 0.41 µM (IC50).

Under setting [2], `CS(=O)(=O)Nc1ccc(C(O)CN2C[C@@H]3C[C@@](O)(Cc4ccccc4)C[C@@H]3C2)cc1` (mixture of isomers) [Example 150, rac-N-(4-(2-((3aR,5r,6aS)-5-benzyl-5-hydroxyhexahydrocyclo-penta[c]pyrrol-2(1H)-yl)-1-hydroxy-ethyl)phenyl)meth-anesulfonamide] showed an IC50 of 0.047 µM.

As for `COc1cccc([C@]2(O)C[C@H]3CN(C(C)C(O)c4ccc(O)cc4)C[C@H]3C2)c1` (mixture of isomers) [Example 78, rac-2-(1-hydroxy-1-(4-hydroxyphenyl)propan-2-yl)-5-(3-methoxy-phenyl)octahydro-cyclopenta[c]pyrrol-5-ol], the IC50 under setting [1] was more than 10 µM and the IC50 under setting [2] is not below 10 µM.

`Oc1ccc(C(O)CN2C[C@H]3CN(Cc4ccccc4)C[C@H]3C2)cc1F` (mixture of isomers) [Example 341, rac-4-(2-(5-benzylhexahydropyrrolo [3,4-c]pyrrol-2(1H)-yl)-1-hydroxyethyl)-2-fluorophenol] had an IC50 under setting [1] of less than 0.1 µM and an IC50 under setting [2] of 0.0743 µM.

Regarding `COc1ccc(NC(=O)N2C[C@@H]3C[C@@](O)(c4cccc(OC)c4)C[C@@H]3C2)cc1` [Example 17, 5-hydroxy-5-(3-methoxyphenyl)-N-(4-methoxyphenyl)-octahydrocyclopenta[c] pyrrole-2-carboxamide], the IC50 under setting [1] is more than 10 µM.

As for `OC(CN1C[C@@H]2C[C@@](O)(c3ccccc3)C[C@@H]2C1)c1cccc(F)c1` (mixture of isomers) [Example 64, rac-2-[2-(3-fluorophenyl)-2-hydroxyethyl]-5-phenyl-octahydrocyclopenta[c] pyrrol-5-ol], the IC50 is more than 10 µM under setting [1] and not below 10 µM under setting [2].

For the molecule `Oc1ccc(C(O)CN2C[C@@H]3C[C@@](O)(Cc4ccccc4)C[C@@H]3C2)nc1F` (mixture of isomers) [Example 191, rac-(3aR,5r,6aS)-5-benzyl-2-(2-(6-fluoro-5-hydroxypyridin-2-yl)-2-hydroxyethyl)octahydro-cyclopenta[c]pyrrol-5-ol], under setting [2], it took 0.171 µM to reach half-maximal inhibition (IC50).
